Data as given in publication PMC12111564, “Extended Family of Thiophosphoryl-Appended Pd(II) Pincer Complexes with a Deprotonated Amide Core: Synthesis and Biological Evaluation” (International Journal of Molecular Sciences, 2025).

Key:
[1] = system: human colorectal carcinoma (HCT116); test: MTT cytotoxicity assay, HCT116; format: cell-based; details: 48 h exposure, read-out: IC50 ± SD, HCT116
Experimental: (§1) The cytotoxic activity of the complexes obtained was screened against several human solid and hematopoietic cancer cell lines using the conventional MTT assay. To evaluate their selectivity for cancerous over non-cancerous cells, analogous tests were performed with pseudonormal human embryonic kidney (HEK293) and breast epithelial (HBL100) cell lines.
(§2) The cytotoxicity of the compounds obtained was investigated on human colorectal carcinoma (HCT116), breast cancer (MCF7), prostate adenocarcinoma (PC3), glioblastoma (U251), ovarian adenocarcinoma (Scov3), chronic myelogenous leukemia (K562 and K562/iS9), multiple plasmacytoma (AMO1), and acute lymphoblastic leukemia (H9) cell lines, as well as human embryonic kidney (HEK293) and mammary epithelial (HBL100 and HBL100/Dox) cells used as non-cancerous cell lineages. All the cell lines were obtained from American Type Culture Collection (ATCC). The tested compounds were initially dissolved in DMSO. Cisplatin was obtained from a commercial source (as an infusion concentrate in natural saline solution). The experiments were performed using the conventional MTT assay (ICN Biomedicals, Eschwege, Germany) according to the previously published procedure.

breast cancer (MCF7) = test: MTT cytotoxicity assay, MCF7; format: cell-based, human; details: 48 h exposure, read-out: IC50 ± SD, MCF7
Experimental: as §1, §2

[2] = system: prostate adenocarcinoma (PC3); test: MTT cytotoxicity assay, PC3; format: cell-based, human; details: 48 h exposure, read-out: IC50 ± SD, PC3
Experimental: as §1, §2

[3] = system: human embryonic kidney (HEK293); test: MTT cytotoxicity assay, HEK293; format: cell-based; details: 48 h exposure, non-cancerous cells, read-out: IC50 ± SD, HEK293
Experimental: as §1, §2

[4] = system: mammary epithelial cells HBL100; test: MTT cytotoxicity assay, HBL100; format: cell-based, human; details: 48 h exposure, non-cancerous cells, read-out: IC50 ± SD, HBL100
Experimental: as §1, §2

[5] = system: doxorubicin-resistant mammary epithelial cells HBL100/Dox; test: MTT cytotoxicity assay, HBL100/Dox; format: cell-based, human; details: 48 h exposure, doxorubicin-resistant clone, read-out: IC50 ± SD, HBL100/Dox
Experimental: as §1, §2

[6] = system: chronic myelogenous leukemia (K562); test: MTT cytotoxicity assay, K562; format: cell-based, human; details: 48 h exposure, read-out: IC50 ± SD, K562
Experimental: as §1, §2

[7] = system: doxorubicin-resistant subline of chronic myelogenous leukemia cells (K562/iS9); test: MTT cytotoxicity assay, K562/iS9; format: cell-based, human; details: 48 h exposure, read-out: IC50 ± SD, K562/iS9
Experimental: as §1, §2

[8] = system: multiple plasmacytoma (AMO1); test: MTT cytotoxicity assay, AMO1; format: cell-based, human; details: 48 h exposure, read-out: IC50 ± SD, AMO1
Experimental: as §1, §2

[9] = system: acute lymphoblastic leukemia (H9); test: MTT cytotoxicity assay, H9; format: cell-based, human; details: 48 h exposure, read-out: IC50 ± SD, H9
Experimental: as §1
as §2, with “Cisplatin was obtained from a commercial source (as an infusion concentrate in natural saline solution).” left out

glioblastoma (U251) = test: MTT cytotoxicity assay, U251; format: cell-based, human
Experimental: as §1, §2

[10] = system: ovarian adenocarcinoma (Scov3); test: MTT cytotoxicity assay, Scov3; format: cell-based, human
Experimental: as §1, §2

[11] = Stability in DMSO solution by 31P NMR monitoring; format: physicochemical; details: at least for several days
Excerpt: The identities and structures of both free amides 2–8 and their cyclopalladated derivatives were unambiguously confirmed based on the IR and multinuclear NMR spectroscopic data (including different 2D NMR techniques), as well as elemental analyses, which are presented in detail in Section 3 (Materials and Methods) and Figures S1–S31 in the Supporting Information (SI). The realization of metalation of the central secondary amide unit in the resulting complexes was supported by the lack of NH proton singlets in the ^1H NMR spectra, as well as the absence of amide II and amide A bands in the IR spectra. The coordination of the thiophosphoryl pendant arm was evidenced by a strong downfield shift of the phosphorus resonance (ΔδP = 8.1–17.4 ppm) and the displacement of the P=S bond stretches towards lower frequencies, which reached up to 65 cm^−1. The coordination of the additional N- or S-donor unit was indirectly indicated by considerable shifts of the signals of CH/CH3 protons or quaternary carbon nuclei located in the close proximity to the heteroatom (for example, ΔδH for the methyl substituent in the thioether group of 13a,b was more than 0.65 ppm, while a coordination shift of the proton signal, corresponding to the CH unit adjacent to the nitrogen atom of the pyridine ring of 9, composed 0.45 ppm).

[12] = system: Bacillus subtillis (VKM B-501); test: Agar well diffusion, B. subtillis; format: cell-based
Experimental: (§3) The microbial strains Bacillus subtillis (VKM B-501), Micrococcus luteus (VKM Ac-2230), and Groenewaldozyma auringiensis (VKM Y-2927) were used for antimicrobial activity tests. All strains were obtained from the All-Russian Collection of Microorganisms (VKM) at the Skryabin Institute of Biochemistry and Physiology of Microorganisms, Pushchino Scientific Center of Biological Research. B. subtilis and M. luteus were grown on the following medium (g/L): aminopeptide 60 mL; tryptone 5.0 g; yeast extract 1.0 g; soybean extract 30 mL; bacto-agar 15.0 g; final pH 7.2. G. auringiensis was grown on malt extract medium containing the following medium (g/L): malt extract 12.75; dextrin 2.75; glycerol 2.35; gelatin peptone 0.78; bacto-agar 15; final pH 5.4. The antimicrobial activity of ligand 17 and its cyclopalladated derivative 18 (both in the racemic form) was studied by the agar well diffusion method. The overnight grown culture of each strain (100 µL) was applied to the surface of the solid medium, then spread on agar plates using a glass spreader, and left for 30 min. The wells were cut in the culture plates using a sterilized glass tube (4 mm in diameter), and each compound sample was dissolved in DMSO to a final concentration of 0.25 or 2.5 mM (10 µL) and was placed in each well. After this, the plates were kept at room temperature for 3 h to improve the diffusion of the compounds and incubated at 28 °C for 24 h. DMSO (15%) was used as a negative control, while kanamycin (50 mg/mL) was used as a positive control. The antimicrobial activity was determined by measuring the inhibition zone around each well as a mean of three replicates.

[13] = system: Micrococcus luteus (VKM Ac-2230); test: Agar well diffusion, M. luteus; format: cell-based
Experimental: as §3

[14] = system: Groenewaldozyma auringiensis (VKM Y-2927); test: Agar well diffusion, G. auringiensis; format: cell-based
Experimental: as §3

[15] = system: doxorubicin-resistant mammary epithelial cells HBL100/Dox; details: cited from earlier work
[16] = system: doxorubicin-resistant subline of chronic myelogenous leukemia cells (K562/iS9); details: cited from earlier work
solid cancer cells = test: MTT cytotoxicity assay, solid cancer cells; format: cell-based, human; details: inactive at concentrations up to
Experimental: as §1, §2

[17] = system: hematopoietic cancer cells; test: MTT cytotoxicity assay, hematopoietic cancer cells; format: cell-based, human; details: inactive at concentrations up to
Experimental: as §1, §2

K562 cells = test: Apoptosis induction, Annexin V-FITC/PI flow cytometry, K562; format: cell-based, human; details: 10 μM, 20 h
Excerpt: (§4) To our delight, in general the biological profile of complex (R)-18 appeared to be close to that of the previously reported phenyl-substituted counterpart (compare entries 10 and 1 in Table 1 and entries 6 and 1 in Table 2), with a lower activity on HCT116 and PC3 cells but remarkably higher selectivity towards K562 cells over non-cancerous HEK293 cells. […] The total percentage of early (lower right quadrant) and late (upper right quadrant) apoptotic cells for (R)-18 on K562/iS9 subline was even higher than in the parental cells. These findings prompted us to gain further insight into the bioactivity of the Pd(II) pincer complexes of thiophosphoryl-functionalized amides from the viewpoint of their potential to overcome drug resistance.
(§5) The apoptosis-inducing ability of enantiomerically pure and racemic complexes 18 was studied on K562 and K562/iS9 cells that were cultured in a medium containing 10 μM of the tested palladocycle for 20 h. The experiments were performed following the published procedure. The analysis was carried out on a FACScan flow cytometer (Becton Dickinson, Franklin Lakes, NJ, USA) using the CellQuest software (version 3.3).

K562/iS9 cells = test: Apoptosis induction, Annexin V-FITC/PI flow cytometry, K562/iS9; format: cell-based, human; details: 10 μM, 20 h
Excerpt: as §4, §5

P-glycoprotein (P-gp) = target: T1, P-glycoprotein (P-gp) (Homo sapiens, UniProt P08183); test: P-gp functional activity, Rh123 efflux from K562/iS9 cells; format: cell-based; details: 20 μM of complex, 37 °C, 30 min, flow cytometry
T1 construct: We assessed the efflux of the fluorescent dye Rhodamine 123 (Rh123) from cells with a high P-gp content—K562/iS9 cells; endogenous in cells; host or cells: K562/iS9 (doxorubicin-resistant subline of K562)
Experimental: We assessed the efflux of the fluorescent dye Rhodamine 123 (Rh123) from cells with a high P-gp content—K562/iS9 cells [31].
The functional activity of P-gp was evaluated by the method described earlier [40]. K562/iS9 cells (3 × 10^6) were incubated for 15 min in a culture medium containing 5 μg/mL of Rh123 (Sigma-Aldrich, St. Louis, MO, USA). After incubation, the cells were washed twice and divided into several fractions. […] The incubation was carried out in the full culture medium at 37 °C for 30 min. […] The cell fluorescence was evaluated using a flow cytometer (Becton Dickinson). The results were analyzed using the CellQuest software.

[18] = agar well diffusion, 0.25 or 2.5 mM, racemic form
[19] = 0.25 mM, 10 µL per well, 28 °C, 24 h
[20] = 2.50 mM, 10 µL per well, 28 °C, 24 h

T1 sequence (P08183 whole entry): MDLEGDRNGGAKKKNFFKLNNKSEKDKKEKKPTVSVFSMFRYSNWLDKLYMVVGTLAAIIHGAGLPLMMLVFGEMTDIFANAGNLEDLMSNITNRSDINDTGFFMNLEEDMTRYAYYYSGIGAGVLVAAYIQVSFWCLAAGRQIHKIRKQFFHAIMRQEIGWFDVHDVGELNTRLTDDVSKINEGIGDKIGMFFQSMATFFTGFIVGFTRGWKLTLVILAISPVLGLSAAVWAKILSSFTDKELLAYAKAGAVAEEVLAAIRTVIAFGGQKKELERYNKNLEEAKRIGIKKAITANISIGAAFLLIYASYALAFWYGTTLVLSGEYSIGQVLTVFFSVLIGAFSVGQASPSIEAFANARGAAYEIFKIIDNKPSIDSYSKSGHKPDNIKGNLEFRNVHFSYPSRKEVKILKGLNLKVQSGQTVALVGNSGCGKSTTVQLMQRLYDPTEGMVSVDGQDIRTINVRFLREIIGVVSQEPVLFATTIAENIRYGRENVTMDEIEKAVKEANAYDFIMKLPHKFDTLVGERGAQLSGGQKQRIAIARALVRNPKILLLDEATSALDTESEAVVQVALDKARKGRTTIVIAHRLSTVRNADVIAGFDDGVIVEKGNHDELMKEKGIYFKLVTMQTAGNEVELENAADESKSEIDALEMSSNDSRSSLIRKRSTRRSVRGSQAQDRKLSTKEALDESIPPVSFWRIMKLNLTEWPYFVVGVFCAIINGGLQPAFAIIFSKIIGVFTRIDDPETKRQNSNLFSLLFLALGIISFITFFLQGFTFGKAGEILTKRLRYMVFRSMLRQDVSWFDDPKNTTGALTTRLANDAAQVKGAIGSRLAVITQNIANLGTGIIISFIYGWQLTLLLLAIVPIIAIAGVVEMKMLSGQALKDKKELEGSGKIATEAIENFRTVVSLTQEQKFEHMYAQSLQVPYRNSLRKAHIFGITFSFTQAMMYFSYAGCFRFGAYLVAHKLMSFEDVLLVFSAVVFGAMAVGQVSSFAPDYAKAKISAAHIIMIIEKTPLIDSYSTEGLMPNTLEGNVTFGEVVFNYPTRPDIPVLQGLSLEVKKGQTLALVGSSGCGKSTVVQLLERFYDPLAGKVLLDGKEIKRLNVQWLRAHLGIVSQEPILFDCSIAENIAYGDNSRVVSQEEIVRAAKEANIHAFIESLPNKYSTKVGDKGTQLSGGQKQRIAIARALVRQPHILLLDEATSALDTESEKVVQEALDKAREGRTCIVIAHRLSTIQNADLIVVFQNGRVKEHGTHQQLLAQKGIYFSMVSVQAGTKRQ

With `O=C1c2cc(Cl)cc[n+]2[Pd-2]2([Cl])[S+]=P(c3ccccc3)(c3ccccc3)C(c3ccccc3)[N]12` (racemic) [Compound 9, [κ^3-S,N,N-(L)Pd(II)Cl] complex] the IC50 [1] was 7 ± 0.5 µM, the IC50 (breast cancer (MCF7)) was 6.2 ± 2 µM and the IC50 [2] was 8 ± 0.5 µM. It also gave an IC50 [3] of 10 ± 4 µM, an IC50 [4] of 6.5 ± 1.5 µM and an IC50 [5] of 10.5 ± 1.5 µM. It also gave an IC50 [6] of 8 ± 1.5 µM, an IC50 [7] of 6.2 ± 1.8 µM and an IC50 [8] of 2.4 ± 0.6 µM. For the same compound, the IC50 [9] was 3.2 ± 0.4 µM, the IC50 (glioblastoma (U251)) was 9 ± 1 µM and the IC50 [10] was 8 ± 0.7 µM. The “stability in solution (DMSO)” value [11] was “stable in solution”.

With `CC(C)C(NC(=O)c1ccccn1)P(=S)(c1ccccc1)c1ccccc1` (stereo not shown) [Compound 17] the “inhibitory effect on microorganisms, B. subtillis” value [12, 18] was “did not exert any inhibitory effect”, the “inhibitory effect on microorganisms, M. luteus” value [13, 18] was “did not exert any inhibitory effect” and the “inhibitory effect on microorganisms, G. auringiensis” value [14, 18] was “did not exert any inhibitory effect”.

In the case of `COc1cccc2c1C(=O)c1c(O)c3c(c(O)c1C2=O)C[C@@](O)(C(=O)CO)C[C@@H]3O[C@H]1C[C@H](N)[C@H](O)[C@H](C)O1` [doxorubicin], the “times less active against the resistant clone (HBL100/Dox vs HBL100)” value [15] is listed as “more than 80 times” and the “factor of decrease in efficiency, K562/iS9 vs parental K562” value [16] is listed as 20.

In the case of `N#Cc1ccccc1.N#Cc1ccccc1.[Cl][Pd][Cl]` [PdCl2(NCPh)2], the “concentration up to which inactive, solid cancer cells” value (solid cancer cells) is reported as greater than 60 µM and the “concentration up to which inactive, hematopoietic cancer cells” value [17] is reported as greater than 40 µM.

For `NC[C@H]1O[C@H](O[C@H]2[C@H](O)[C@@H](O[C@H]3O[C@H](CO)[C@@H](O)[C@H](N)[C@H]3O)[C@H](N)C[C@@H]2N)[C@H](O)[C@@H](O)[C@@H]1O` [Km, kanamycin, reference compound], the “Inhibition Zone, B. subtillis (VKM B-501)” value ([12]; 50 mg/mL, positive control) was 10.0 ± 0.8 mm, the “Inhibition Zone, M. luteus (VKM Ac-2230)” value ([13]; 50 mg/mL, positive control) was 15.0 ± 1.0 mm and the “Inhibition Zone, G. auringiensis (VKM Y-2927)” value (shortened to “Inhibition Zone … (VKM Y-2927)”) ([14]; 50 mg/mL, positive control) was 0 mm.

With `CC(C)C1[N]2C(=O)c3cccc[n+]3[Pd-2]2([Cl])[S+]=P1(c1ccccc1)c1ccccc1` (racemic) [Compound 18] the IC50 [1] was 9.2 ± 1.8 µM, the IC50 (breast cancer (MCF7)) was 19.2 ± 1.3 µM and the IC50 [2] was 11.5 ± 1.5 µM. For the same compound, the IC50 [3] was 9.5 ± 1.8 µM, the IC50 [4] was 14 ± 1.4 µM and the IC50 [5] was 23.3 ± 2.7 µM. For the same compound, the IC50 [6] was 4.8 ± 1.2 µM, the IC50 [7] was 6.4 ± 1.7 µM and the IC50 [8] was 3 ± 1.2 µM. The IC50 [9] was 3.4 ± 0.1 µM, the “percentage of necrotic cells (upper left), K562” value (K562 cells) was 0.2% and the “percentage of necrotic cells (upper left), K562/iS9” value (K562/iS9 cells) was 0.4%. For the same compound, the “Inhibition Zone, B. subtillis (VKM B-501)” value [12, 19] was 0.5 ± 0.2 mm, the “Inhibition Zone, B. subtillis (VKM B-501)” value [12, 20] was 0.5 ± 0.2 mm and the “Inhibition Zone, M. luteus (VKM Ac-2230)” value [13, 19] was 0.5 ± 0.3 mm. The “Inhibition Zone, M. luteus (VKM Ac-2230)” value [13, 20] was 4.0 ± 0.5 mm, the “Inhibition Zone … (VKM Y-2927)” value [14, 19] was 0 mm and the “Inhibition Zone … (VKM Y-2927)” value [14, 20] was 0 mm.

With `O=C1c2ccc3ccccc3[n+]2[Pd-2]2([Cl])[S+]=P(c3ccccc3)(c3ccccc3)C[N]12` (stereo not shown) [Compound 10b, [κ^3-S,N,N-(L)Pd(II)Cl] complex] the IC50 [1] was 14 ± 4 µM, the IC50 (breast cancer (MCF7)) was 31 ± 2 µM and the IC50 [2] was 23 ± 1 µM. The IC50 [3] was 20 ± 4 µM, the IC50 [4] was 34.2 ± 2.8 µM and the IC50 [5] was 46 ± 1.4 µM. For the same compound, the “stability in solution (DMSO)” value [11] was “stable in solution”.

In the case of `COc1cc2c(cc1OC)CN(CCc1ccc(NC(=O)c3cccc4c(=O)c5cccc(OC)c5[nH]c34)cc1)CC2` [elacridar], the “effect on Rh123 efflux / interaction with P-gp” value (P-glycoprotein (P-gp)) is reported as “almost completely blocks the efflux of Rh123”.
